Test system: Ba/F3 cells expressing EGFR Del19/C797S (EGFR DC)
Assay: Inhibition of proliferation of Ba/F3 cells expressing EGFR Del19/C797S (CellTiter-Glo, 72 h)
Format: cell-based
Conditions: Mus musculus, BaF3, 72 hours treatment
Procedure: The following experiment was performed to evaluate the inhibitory activity of the compounds according to the present invention on the proliferation of Ba/F3 cells expressing EGFR Del19/C797S (EGFR DC) and EGFR L858R/C797S (EGFR LC) mutations.
Ba/F3 cells were cultured using medium (RPMI-1640) containing 10% fetal bovine serum (FBS) and 5 ng/ml IL-3 (R&D Systems). The transduced Ba/F3 cells were cultured by adding 1 μg/ml puromycin (Invitrogen) to the same medium.
24 hours prior to treatment with compounds, 3,000 to 5,000 cells were seeded on a well plate (white clear bottom 96 well plate, Corning). The compounds were diluted in dimethyl sulfoxide (3-fold dilution, total of 12 concentrations) and injected at 1 μl each so that the final concentration was 0.2 nM to 5 μM. After 72 hours post treatment with compounds, living cells were stored at room temperature for 10 minutes using CellTiter-Glo luminescent cell-viability reagent (Promega), and the luminescence intensity thereof was measured using a reader (Synergy Neo, Biotek). Each test was repeated three times. The result values were calculated as a cell growth rate (%) compared to the control group. A graph was created using the GraphPad Prism version 8.3.0 program, and GI50 values were calculated.

GI50 [nM]	SMILES
< 100	COc1cc(N2CCOCC2)c(-c2cn(C)nc2F)cc1Nc1cc(N2OCC[C@@H]2c2cccc(F)c2F)ncn1 [Example 16, (R)-6-(3-(2,3-difluorophenyl)isoxazolidin-2-yl)-N-(5-(3-fluoro-1-methyl-1H-pyrazol-4-yl)-2-methoxy-4-morpholinophenyl)pyrimidin-4-amine]
< 100	COc1cc(N2CCC3(CC2)CC(N(C)C)C3)c(-c2cnn(C)c2)cc1Nc1cc(N2OCC[C@@H]2c2cccc(F)c2F)ncn1 [Example 31, (R)-7-(4-((6-(3-(2,3-difluorophenyl)isoxazolidin-2-yl)pyrimidin-4-yl)amino)-5-methoxy-2-(1-methyl-1H-pyrazol-4-yl)phenyl)-N,N-dimethyl-7-azaspiro[3.5]nonan-2-amine]
< 100	COc1cc(N2CCC(N3CC(F)(F)C3)CC2)c(-c2cnn(C)c2)cc1Nc1cc(N2OCC[C@@H]2c2cccc(F)c2F)ncn1 [Example 55, (R)-N-(4-(4-(3,3-difluoroazetidin-1-yl)piperidin-1-yl)-2-methoxy-5-(1-methyl-1H-pyrazol-4-yl)phenyl)-6-(3-(2,3-difluorophenyl)isoxazolidin-2-yl)pyrimidin-4-amine]
100 to 1000	COc1cc(C23CCOCC2C3)c(-c2cnn(C)c2)cc1Nc1cc(N2OCC[C@@H]2c2cccc(F)c2F)ncn1 (stereo partly drawn) [Example 59, N-(4-(3-oxabicyclo[4.1.0]heptan-6-yl)-2-methoxy-5-(1-methyl-1H-pyrazol-4-yl)phenyl)-6-((R)-3-(2,3-difluorophenyl)isoxazolidin-2-yl)pyrimidin-4-amine]
100 to 1000	COc1cc(C23CCOCC2C3(F)F)c(-c2cnn(C)c2)cc1Nc1cc(N2OCC[C@@H]2c2cccc(F)c2F)ncn1 (stereo partly drawn) [Example 60, N-(4-(7,7-difluoro-3-oxabicyclo[4.1.0]heptan-6-yl)-2-methoxy-5-(1-methyl-1H-pyrazol-4-yl)phenyl)-6-((R)-3-(2,3-difluorophenyl)isoxazolidin-2-yl)pyrimidin-4-amine]
< 100	COc1cc(N2CCC(CN3CCC(CC(F)(F)F)C3)CC2)c(-c2cnn(C)c2)cc1Nc1cc(N2OCC[C@@H]2c2cccc(F)c2F)ncn1 (stereo partly drawn) [Example 63, 6-((R)-3-(2,3-difluorophenyl)isoxazolidin-2-yl)-N-(2-methoxy-5-(1-methyl-1H-pyrazol-4-yl)-4-(4-((3-(2,2,2-trifluoroethyl)pyrrolidin-1-yl)methyl)piperidin-1-yl)phenyl)pyrimidin-4-amine]
100 to 1000	COc1cc(N2CCC(N3CC[C@@H](OC)[C@@H](F)C3)CC2)c(-c2cnn(C)c2)cc1Nc1cc(N2OCC[C@@H]2c2cccc(F)c2F)ncn1 [Example 64, 6-((R)-3-(2,3-difluorophenyl)isoxazolidin-2-yl)-N-(4-((3,4R)-3-fluoro-4-methoxy-[1,4′-bipiperidin]-1′-yl)-2-methoxy-5-(1-methyl-1H-pyrazol-4-yl)phenyl)pyrimidin-4-amine]
100 to 1000	COc1cc(N2CCC(N3CC[C@H](OC)C3)CC2)c(-c2cnn(C)c2)cc1Nc1cc(N2OCC[C@@H]2c2cccc(F)c2F)ncn1 [Example 70, 6-((R)-3-(2,3-difluorophenyl)isoxazolidin-2-yl)-N-(2-methoxy-4-(4-((S)-3-methoxypyrrolidin-1-yl)piperidin-1-yl)-5-(1-methyl-1H-pyrazol-4-yl)phenyl)pyrimidin-4-amine]
100 to 1000	COc1cc(N2CCC(N3CCOC(C(F)(F)F)C3)CC2)c(-c2cnn(C)c2)cc1Nc1cc(N2OCC[C@@H]2c2cccc(F)c2F)ncn1 (stereo partly drawn) [Example 73, 6-((R)-3-(2,3-difluorophenyl)isoxazolidin-2-yl)-N-(2-methoxy-5-(1-methyl-1H-pyrazol-4-yl)-4-(4-(2-(trifluoromethyl)morpholino)piperidin-1-yl)phenyl)pyrimidin-4-amine]

Continued, compound first:

SMILES	GI50 [nM]
COc1cc(N2CCC(C3COC3)CC2)c(-c2cn(C)nc2F)cc1Nc1cc(N2OCC[C@@H]2c2cccc(F)c2F)ncn1 [Example 17, (R)-6-(3-(2,3-difluorophenyl)isoxazolidin-2-yl)-N-(5-(3-fluoro-1-methyl-1H-pyrazol-4-yl)-2-methoxy-4-(4-(oxetan-3-yl)piperidin-1-yl)phenyl)pyrimidin-4-amine]	100 to 1000
COc1cc(N2CCC3(CCC(OC)CC3)CC2)c(-c2cnn(C)c2)cc1Nc1cc(N2OCC[C@@H]2c2cccc(F)c2F)ncn1 [Example 42, (R)-6-(3-(2,3-difluorophenyl)isoxazolidin-2-yl)-N-(2-methoxy-4-(9-methoxy-3-azaspiro[5.5]undecan-3-yl)-5-(1-methyl-1H-pyrazol-4-yl)phenyl)pyrimidin-4-amine]	100 to 1000
COc1cc(N2CCOC3(CC3)C2)c(-c2cnn(C)c2)cc1Nc1cc(N2OCC[C@@H]2c2cccc(F)c2F)ncn1 [Example 43, (R)-6-(3-(2,3-difluorophenyl)isoxazolidin-2-yl)-N-(2-methoxy-5-(1-methyl-1H-pyrazol-4-yl)-4-(4-oxa-7-azaspiro[2.5]octan-7-yl)phenyl)pyrimidin-4-amine]	100 to 1000
COc1cc(N2C3COCC2C3)c(-c2cnn(C)c2)cc1Nc1cc(N2OCC[C@@H]2c2cccc(F)c2F)ncn1 [Example 44, N-(4-(3-oxa-6-azabicyclo[3.1.1]heptan-6-yl)-2-methoxy-5-(1-methyl-1H-pyrazol-4-yl)phenyl)-6-((R)-3-(2,3-difluorophenyl)isoxazolidin-2-yl)pyrimidin-4-amine]	100 to 1000
COc1cc(N2CCC3(CCOCC3)C2)c(-c2cnn(C)c2)cc1Nc1cc(N2OCC[C@@H]2c2cccc(F)c2F)ncn1 [Example 45, (R)-6-(3-(2,3-difluorophenyl)isoxazolidin-2-yl)-N-(2-methoxy-5-(1-methyl-1H-pyrazol-4-yl)-4-(8-oxa-2-azaspiro[4.5]decan-2-yl)phenyl)pyrimidin-4-amine]	100 to 1000
COc1cc(N2CCC(N3CCOCC3)CC2)c(-c2cnn(C)c2)cc1Nc1cc(N2OCC[C@@H]2c2cccc(F)c2F)ncn1 [Example 46, (R)-6-(3-(2,3-difluorophenyl)isoxazolidin-2-yl)-N-(2-methoxy-5-(1-methyl-1H-pyrazol-4-yl)-4-(4-morpholinopiperidin-1-yl)phenyl)pyrimidin-4-amine]	< 100
COc1cc2c(cc1Nc1cc(N3OCC[C@@H]3c3cccc(F)c3F)ncn1)-c1cnn(C)c1CCN2C(C)C [Example 47, (R)-N-(6-(3-(2,3-difluorophenyl)isoxazolidin-2-yl)pyrimidin-4-yl)-6-isopropyl-8-methoxy-3-methyl-3,4,5,6-tetrahydrobenzo[b]pyrazolo [4,3-d]azepin-9-amine]	100 to 1000
COc1cc(N2CCC3(CC2)CCN(C2COC2)CC3)c(-c2cnn(C)c2)cc1Nc1cc(N2OCC[C@@H]2c2cccc(F)c2F)ncn1 [Example 56, (R)-6-(3-(2,3-difluorophenyl)isoxazolidin-2-yl)-N-(2-methoxy-5-(1-methyl-1H-pyrazol-4-yl)-4-(9-(oxetan-3-yl)-3,9-diazaspiro[5.5]undecan-3-yl)phenyl)pyrimidin-4-amine]	< 100
COc1cc(N2CCC(N3CCC(F)(F)CC3)CC2)c(-c2cnn(C)c2)cc1Nc1cc(N2OCC[C@@H]2c2cccc(F)c2F)ncn1 [Example 61, (R)-N-(4-(4,4-difluoro-[1,4′-bipiperidin]-1′-yl)-2-methoxy-5-(1-methyl-1H-pyrazol-4-yl)phenyl)-6-(3-(2,3-difluorophenyl)isoxazolidin-2-yl)pyrimidin-4-amine]	100 to 1000
COc1cc(N2CCC3CCN(C)C3C2)c(-c2cnn(C)c2)cc1Nc1cc(N2OCC[C@@H]2c2cccc(F)c2F)ncn1 (stereo partly drawn) [Example 62, 6-((R)-3-(2,3-difluorophenyl)isoxazolidin-2-yl)-N-(2-methoxy-5-(1-methyl-1H-pyrazol-4-yl)-4-(1-methyloctahydro-6H-pyrrolo[2,3-c]pyridin-6-yl)phenyl)pyrimidin-4-amine]	< 100
COc1cc(N2CC[C@@H](OC)[C@@H](F)C2)c(-c2cnn(C)c2)cc1Nc1cc(N2OCC[C@@H]2c2cccc(F)c2F)ncn1 [Example 66, 6-((R)-3-(2,3-difluorophenyl)isoxazolidin-2-yl)-N-(4-((3,4R)-3-fluoro-4-methoxypiperidin-1-yl)-2-methoxy-5-(1-methyl-1H-pyrazol-4-yl)phenyl)pyrimidin-4-amine]	100 to 1000
COc1cc(N2CC[C@H](OC)[C@H](F)C2)c(-c2cnn(C)c2)cc1Nc1cc(N2OCC[C@@H]2c2cccc(F)c2F)ncn1 [Example 67, 6-((R)-3-(2,3-difluorophenyl)isoxazolidin-2-yl)-N-(4-((3R,4S)-3-fluoro-4-methoxypiperidin-1-yl)-2-methoxy-5-(1-methyl-1H-pyrazol-4-yl)phenyl)pyrimidin-4-amine]	< 100
COc1cc(N2CCC(N3CC[C@H](F)C3)CC2)c(-c2cnn(C)c2)cc1Nc1cc(N2OCC[C@@H]2c2cccc(F)c2F)ncn1 [Example 71, 6-((R)-3-(2,3-difluorophenyl)isoxazolidin-2-yl)-N-(4-(4-((S)-3-fluoropyrrolidin-1-yl)piperidin-1-yl)-2-methoxy-5-(1-methyl-1H-pyrazol-4-yl)phenyl)pyrimidin-4-amine]	100 to 1000
COc1cc(N2CCN(C)CC2)c(-c2ccoc2)cc1Nc1cc(N2OCC[C@@H]2c2cccc(F)c2F)ncn1 [Example 75, (R)-6-(3-(2,3-difluorophenyl)isoxazolidin-2-yl)-N-(5-(furan-3-yl)-2-methoxy-4-(4-methylpiperazin-1-yl)phenyl)pyrimidin-4-amine]	100 to 1000
